In patent US7825104B2, “Methods and compositions for treating fungal infections” (Ramot at Tel Aviv University Ltd., priority 2001, dated 2010):

Assays:
[1] = cited from earlier work
Trichophyton rubrum = test: in vitro fungicidal/fungistatic test on T. rubrum cultures; format: cell-based; settings: concentration range of 5-10 mg/ml tested
Procedure: An in vitro test was designed for testing the fungicidal or fungistatic activity of PBA and its water-soluble derivatives. Cultures of T. rubrum were grown on 100 microliters SDB agar in a standard 96 well plate. Following an initial growth period of about 24 hours, each well was treated with 50-100 microliters of the reagent tested. Following an appropriate incubation period with or without washing, residual viability was estimated from comparison with appropriate controls, followed by secondary verification of viability tests by transfer of a part of the treated culture into a fresh well for optional recovery and growth. […] The photograph was taken four days after treatment.

Bacilus megaterium = test: in vitro effect on Bacillus megaterium (control, Cyt P-450 containing bacteria); format: cell-based; settings: solution of about 5-10 mg/ml
Candida parapsilosis = test: in vitro fungicidal/inhibitory effect on Candida parapsilosis; format: cell-based
[2] = ORL-RAT; cited from earlier work

Compound: OB(O)c1ccccc1 [PBA, Phenyl boronic acid]
- solubility in water [1]: reasonably soluble in water
- effect on T. rubrum (Trichophyton rubrum): fungicidal
- activity against Bacillus megaterium (Bacilus megaterium): antibiotic activity
- effect on C. parapsylosis (Candida parapsilosis; 5 mg/ml): fungistatic
- effect on C. parapsylosis (Candida parapsilosis; 10 mg/ml): fungicidal
- LD50 [2]: 740 mg/kg
